In PubChem BioAssay (NCI):
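A five-concentration, 48-hour dose response in 96-well plates underlies each endpoint, interpolated linearly between surrounding concentrations. At the TGI there is no net growth.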

Experiments:
Assay in all cases: NCI tumour cell line growth inhibition, 48 h
HOP-92 NSCLC = test system: HOP-92 NSCLC
ACHN renal = test system: ACHN renal
A498 renal = test system: A498 renal
KM12 colon = test system: KM12 colon
NCI-H23 lung = test system: NCI-H23 lung
K-562 leukemia = test system: K-562 leukemia
TK-10 renal = test system: TK-10 renal
EKVX NSCLC = test system: EKVX NSCLC
MDA-MB-231 breast = test system: MDA-MB-231 breast
IGROV1 ovarian = test system: IGROV1 ovarian
SNB-19 CNS = test system: SNB-19 CNS
SK-OV-3 ovarian = test system: SK-OV-3 ovarian
786-0 renal = test system: 786-0 renal
SF-539 CNS = test system: SF-539 CNS
SK-MEL-2 melanoma = test system: SK-MEL-2 melanoma
CAKI-1 renal = test system: CAKI-1 renal
SF-295 CNS = test system: SF-295 CNS
HT29 colon = test system: HT29 colon
HCT-116 colon = test system: HCT-116 colon
U251 CNS = test system: U251 CNS
SN12C renal = test system: SN12C renal
NCI-H226 lung = test system: NCI-H226 lung
OVCAR-3 ovarian = test system: OVCAR-3 ovarian
UACC-62 melanoma = test system: UACC-62 melanoma
MALME-3M melanoma = test system: MALME-3M melanoma
MCF7 breast = test system: MCF7 breast
OVCAR-5 ovarian = test system: OVCAR-5 ovarian
DU-145 prostate = test system: DU-145 prostate
MOLT-4 leukemia = test system: MOLT-4 leukemia
OVCAR-4 ovarian = test system: OVCAR-4 ovarian
NCI-H522 lung = test system: NCI-H522 lung
COLO 205 colon = test system: COLO 205 colon
NCI-H460 lung = test system: NCI-H460 lung
LOX IMVI melanoma = test system: LOX IMVI melanoma
OVCAR-8 ovarian = test system: OVCAR-8 ovarian
SF-268 CNS = test system: SF-268 CNS
T-47D breast = test system: T-47D breast
HCC-2998 colon = test system: HCC-2998 colon
MDA-MB-435 = test system: MDA-MB-435
HCT-15 colon = test system: HCT-15 colon
MDA-N = test system: MDA-N
M14 melanoma = test system: M14 melanoma
HS 578T breast = test system: HS 578T breast
SNB-75 CNS = test system: SNB-75 CNS
A549 NSCLC = test system: A549 NSCLC
RXF 393 renal = test system: RXF 393 renal
PC-3 prostate = test system: PC-3 prostate
UACC-257 melanoma = test system: UACC-257 melanoma
UO-31 renal = test system: UO-31 renal
SR leukemia = test system: SR leukemia
NCI/ADR-RES ovarian = test system: NCI/ADR-RES ovarian
HL-60(TB) leukemia = test system: HL-60(TB) leukemia
SK-MEL-28 melanoma = test system: SK-MEL-28 melanoma
CCRF-CEM leukemia = test system: CCRF-CEM leukemia
BT-549 breast = test system: BT-549 breast
SW-620 colon = test system: SW-620 colon
SK-MEL-5 melanoma = test system: SK-MEL-5 melanoma
HOP-62 NSCLC = test system: HOP-62 NSCLC
RPMI-8226 leukemia = test system: RPMI-8226 leukemia

Structure (SMILES): CC[C@]12C=CCN3CC[C@@]4(c5cc(N=O)c(OC)cc5N(C)[C@H]4[C@@](O)(C(=O)NC(Cc4c[nH]c5ccccc45)C(=O)OC)[C@@H]1O)[C@@H]32 (some centres undefined)
- TGI (HOP-92 NSCLC): 28.8 µM
- TGI (ACHN renal): 35.5 µM
- TGI (A498 renal): > 100 µM
- TGI (KM12 colon): 26.1 µM
- TGI (NCI-H23 lung): 38.5 µM
- TGI (K-562 leukemia): 31.4 µM
- TGI (TK-10 renal): 31.7 µM
- TGI (EKVX NSCLC): 52.2 µM
- TGI (MDA-MB-231 breast): 34.7 µM
- TGI (IGROV1 ovarian): 34.9 µM
- TGI (SNB-19 CNS): 71.3 µM
- TGI (SK-OV-3 ovarian): 38.9 µM
- TGI (786-0 renal): > 100 µM
- TGI (SF-539 CNS): 30.5 µM
- TGI (SK-MEL-2 melanoma): 34.1 µM
- TGI (CAKI-1 renal): 31.9 µM
- TGI (SF-295 CNS): 32.7 µM
- TGI (HT29 colon): 29.3 µM
- TGI (HCT-116 colon): 28.3 µM
- TGI (U251 CNS): 21.7 µM
- TGI (SN12C renal): 71.5 µM
- TGI (NCI-H226 lung): 52.4 µM
- TGI (OVCAR-3 ovarian): 28.6 µM
- TGI (UACC-62 melanoma): 29.6 µM
- TGI (MALME-3M melanoma): 34.8 µM
- TGI (MCF7 breast): 35.2 µM
- TGI (OVCAR-5 ovarian): 43.1 µM
- TGI (DU-145 prostate): 30.9 µM
- TGI (MOLT-4 leukemia): 27.9 µM
- TGI (OVCAR-4 ovarian): 29.2 µM
- TGI (NCI-H522 lung): 6.75 µM
- TGI (COLO 205 colon): 29.2 µM
- TGI (NCI-H460 lung): 38.7 µM
- TGI (LOX IMVI melanoma): 47 µM
- TGI (OVCAR-8 ovarian): 42.6 µM
- TGI (SF-268 CNS): > 100 µM
- TGI (T-47D breast): 32 µM
- TGI (HCC-2998 colon): 29 µM
- TGI (MDA-MB-435): 33.3 µM
- TGI (HCT-15 colon): 44.7 µM
- TGI (MDA-N): 46.6 µM
- TGI (M14 melanoma): 41.1 µM
- TGI (HS 578T breast): > 100 µM
- TGI (SNB-75 CNS): 29.4 µM
- TGI (A549 NSCLC): > 100 µM
- TGI (RXF 393 renal): 26.9 µM
- TGI (PC-3 prostate): 23.9 µM
- TGI (UACC-257 melanoma): 29.6 µM
- TGI (UO-31 renal): 45.3 µM
- TGI (SR leukemia): 54.7 µM
- TGI (NCI/ADR-RES ovarian): > 100 µM
- TGI (HL-60(TB) leukemia): 14.7 µM
- TGI (SK-MEL-28 melanoma): 86.8 µM
- TGI (CCRF-CEM leukemia): 24.3 µM
- TGI (BT-549 breast): 29.8 µM
- TGI (SW-620 colon): 29.7 µM
- TGI (SK-MEL-5 melanoma): 28 µM
- TGI (HOP-62 NSCLC): 34.6 µM

Structure (SMILES): CC(=O)NCCC1CNc2ccccc21 (centres undefined)
- TGI (HOP-92 NSCLC): > 100 µM
- TGI (ACHN renal): > 100 µM
- TGI (A498 renal): > 100 µM
- TGI (KM12 colon): > 100 µM
- TGI (NCI-H23 lung): > 100 µM
- TGI (K-562 leukemia): > 100 µM
- TGI (TK-10 renal): > 100 µM
- TGI (EKVX NSCLC): > 100 µM
- TGI (MDA-MB-231 breast): > 100 µM
- TGI (IGROV1 ovarian): > 100 µM
- TGI (RPMI-8226 leukemia): > 100 µM
- TGI (SNB-19 CNS): > 100 µM
- TGI (SK-OV-3 ovarian): > 100 µM
- TGI (SF-539 CNS): > 100 µM
- TGI (SK-MEL-2 melanoma): > 100 µM
- TGI (CAKI-1 renal): > 100 µM
- TGI (SF-295 CNS): > 100 µM
- TGI (HT29 colon): > 100 µM
- TGI (HCT-116 colon): > 100 µM
- TGI (U251 CNS): > 100 µM
- TGI (SN12C renal): > 100 µM
- TGI (NCI-H226 lung): > 100 µM
- TGI (OVCAR-3 ovarian): > 100 µM
- TGI (UACC-62 melanoma): > 100 µM
- TGI (MALME-3M melanoma): > 100 µM
- TGI (MCF7 breast): > 100 µM
- TGI (OVCAR-5 ovarian): > 100 µM
- TGI (DU-145 prostate): > 100 µM
- TGI (MOLT-4 leukemia): > 100 µM
- TGI (OVCAR-4 ovarian): > 100 µM
- TGI (NCI-H522 lung): > 100 µM
- TGI (COLO 205 colon): > 100 µM
- TGI (NCI-H460 lung): > 100 µM
- TGI (LOX IMVI melanoma): > 100 µM
- TGI (OVCAR-8 ovarian): > 100 µM
- TGI (SF-268 CNS): > 100 µM
- TGI (T-47D breast): > 100 µM
- TGI (HCC-2998 colon): > 100 µM
- TGI (MDA-MB-435): > 100 µM
- TGI (HCT-15 colon): > 100 µM
- TGI (MDA-N): > 100 µM
- TGI (M14 melanoma): > 100 µM
- TGI (HS 578T breast): > 100 µM
- TGI (A549 NSCLC): > 100 µM
- TGI (RXF 393 renal): > 100 µM
- TGI (PC-3 prostate): > 100 µM
- TGI (UACC-257 melanoma): > 100 µM
- TGI (UO-31 renal): > 100 µM
- TGI (SR leukemia): > 100 µM
- TGI (NCI/ADR-RES ovarian): > 100 µM
- TGI (HL-60(TB) leukemia): > 100 µM
- TGI (SK-MEL-28 melanoma): > 100 µM
- TGI (CCRF-CEM leukemia): > 100 µM
- TGI (BT-549 breast): > 100 µM
- TGI (SW-620 colon): > 100 µM
- TGI (SK-MEL-5 melanoma): > 100 µM
